Experimental findings from US20250236608A1, “EGFR INHIBITORS” (Blueprint Medicines Corporation, priority 2022, published 2025) are described below.

The target in one test is EGFR L858R (Homo sapiens (Human), UniProt P00533, L858R). Briefly: Biochemical EGFR inhibition assay, EGFR L858R. As to conditions: Caliper mobility shift; 1.0 mM ATP or ATP Km; read-out: Enz EGFR_L858R IC50.
The target of the next test is EGFR (d746-750) (Homo sapiens (Human), UniProt P00533, DEL746-750). Description: Biochemical EGFR inhibition assay, EGFR (d746-750). As to conditions: Caliper mobility shift; 1.0 mM ATP or ATP Km; read-out: Enz EGFR_Exon19-del746-750 IC50.
The target of test [1] is pEGFR (Tyr1068) in PC-9 cells (Ex19Del) (Homo sapiens (Human), UniProt P00533, DEL746-750). Briefly: PC-9 pEGFR AlphaLISA assay. It is filed as cell-based. As to conditions: 4 hours incubation, p-EGFR (Tyr1068) AlphaLISA, read-out: Ext pEGFR_PC-9 Ex19Del IC50. In short, it runs like this: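 Cells seeded in phenol-free DMEM with 10% FBS adhered overnight at 37° C./5% CO2, then were exposed for 4 hours to a 4-fold, 10-point compound dilution series. After lysis, phospho-EGFR was read by AlphaLISA SureFire Ultra, and IC50 was fitted from percent inhibition versus log concentration.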
Sequence of pEGFR (Tyr1068) in PC-9 cells (Ex19Del) (P00533 other isoform, or with tags, fused parts or gaps del 746-750): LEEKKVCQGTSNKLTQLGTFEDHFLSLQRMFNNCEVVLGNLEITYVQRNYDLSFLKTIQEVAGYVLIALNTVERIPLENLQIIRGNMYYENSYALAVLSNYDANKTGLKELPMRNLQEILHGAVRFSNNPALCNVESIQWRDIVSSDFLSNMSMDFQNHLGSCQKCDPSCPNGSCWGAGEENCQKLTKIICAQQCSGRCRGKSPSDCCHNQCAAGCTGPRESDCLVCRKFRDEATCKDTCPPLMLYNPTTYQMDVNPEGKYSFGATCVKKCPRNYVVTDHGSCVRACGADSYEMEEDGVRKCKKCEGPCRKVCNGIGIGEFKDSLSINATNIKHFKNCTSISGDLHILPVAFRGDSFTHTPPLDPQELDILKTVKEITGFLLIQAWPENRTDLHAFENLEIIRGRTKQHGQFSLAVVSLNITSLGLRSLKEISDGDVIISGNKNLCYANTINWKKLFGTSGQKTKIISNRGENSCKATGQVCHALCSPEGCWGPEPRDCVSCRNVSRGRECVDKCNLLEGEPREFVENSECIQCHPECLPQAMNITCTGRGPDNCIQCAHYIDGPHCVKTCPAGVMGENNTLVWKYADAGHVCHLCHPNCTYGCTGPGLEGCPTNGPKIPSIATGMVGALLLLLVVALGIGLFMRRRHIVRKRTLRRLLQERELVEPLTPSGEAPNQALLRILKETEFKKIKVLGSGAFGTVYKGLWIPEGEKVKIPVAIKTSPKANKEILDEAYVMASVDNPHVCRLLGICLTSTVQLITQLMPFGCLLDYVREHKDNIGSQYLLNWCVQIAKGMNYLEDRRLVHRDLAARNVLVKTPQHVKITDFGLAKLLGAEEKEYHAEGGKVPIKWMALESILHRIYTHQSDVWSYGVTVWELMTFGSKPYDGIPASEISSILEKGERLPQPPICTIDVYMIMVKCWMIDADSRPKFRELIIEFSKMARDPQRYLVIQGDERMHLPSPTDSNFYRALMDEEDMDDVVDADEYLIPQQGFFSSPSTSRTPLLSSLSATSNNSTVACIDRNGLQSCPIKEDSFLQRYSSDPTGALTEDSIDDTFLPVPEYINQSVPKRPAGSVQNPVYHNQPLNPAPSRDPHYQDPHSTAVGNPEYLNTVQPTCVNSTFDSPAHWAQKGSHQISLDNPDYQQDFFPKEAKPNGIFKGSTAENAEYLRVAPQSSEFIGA

Sequence of EGFR (d746-750) (P00533 other isoform, or with tags, fused parts or gaps del 1-694/del 746-750 limits assumed): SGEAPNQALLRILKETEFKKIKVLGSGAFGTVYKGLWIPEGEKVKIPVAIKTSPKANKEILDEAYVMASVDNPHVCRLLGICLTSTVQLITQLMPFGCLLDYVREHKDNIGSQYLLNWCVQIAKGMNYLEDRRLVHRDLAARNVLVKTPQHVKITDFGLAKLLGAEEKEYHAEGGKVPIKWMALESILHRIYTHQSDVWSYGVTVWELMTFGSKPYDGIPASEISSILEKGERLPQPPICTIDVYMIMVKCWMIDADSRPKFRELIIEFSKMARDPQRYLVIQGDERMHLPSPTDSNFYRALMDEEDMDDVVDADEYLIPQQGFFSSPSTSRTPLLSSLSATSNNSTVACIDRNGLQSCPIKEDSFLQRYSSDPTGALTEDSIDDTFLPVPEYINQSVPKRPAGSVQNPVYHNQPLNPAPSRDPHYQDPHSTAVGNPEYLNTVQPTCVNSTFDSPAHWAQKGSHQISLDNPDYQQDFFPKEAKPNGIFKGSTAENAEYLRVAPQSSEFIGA
Sequence of EGFR L858R (P00533 25-1210 L858R): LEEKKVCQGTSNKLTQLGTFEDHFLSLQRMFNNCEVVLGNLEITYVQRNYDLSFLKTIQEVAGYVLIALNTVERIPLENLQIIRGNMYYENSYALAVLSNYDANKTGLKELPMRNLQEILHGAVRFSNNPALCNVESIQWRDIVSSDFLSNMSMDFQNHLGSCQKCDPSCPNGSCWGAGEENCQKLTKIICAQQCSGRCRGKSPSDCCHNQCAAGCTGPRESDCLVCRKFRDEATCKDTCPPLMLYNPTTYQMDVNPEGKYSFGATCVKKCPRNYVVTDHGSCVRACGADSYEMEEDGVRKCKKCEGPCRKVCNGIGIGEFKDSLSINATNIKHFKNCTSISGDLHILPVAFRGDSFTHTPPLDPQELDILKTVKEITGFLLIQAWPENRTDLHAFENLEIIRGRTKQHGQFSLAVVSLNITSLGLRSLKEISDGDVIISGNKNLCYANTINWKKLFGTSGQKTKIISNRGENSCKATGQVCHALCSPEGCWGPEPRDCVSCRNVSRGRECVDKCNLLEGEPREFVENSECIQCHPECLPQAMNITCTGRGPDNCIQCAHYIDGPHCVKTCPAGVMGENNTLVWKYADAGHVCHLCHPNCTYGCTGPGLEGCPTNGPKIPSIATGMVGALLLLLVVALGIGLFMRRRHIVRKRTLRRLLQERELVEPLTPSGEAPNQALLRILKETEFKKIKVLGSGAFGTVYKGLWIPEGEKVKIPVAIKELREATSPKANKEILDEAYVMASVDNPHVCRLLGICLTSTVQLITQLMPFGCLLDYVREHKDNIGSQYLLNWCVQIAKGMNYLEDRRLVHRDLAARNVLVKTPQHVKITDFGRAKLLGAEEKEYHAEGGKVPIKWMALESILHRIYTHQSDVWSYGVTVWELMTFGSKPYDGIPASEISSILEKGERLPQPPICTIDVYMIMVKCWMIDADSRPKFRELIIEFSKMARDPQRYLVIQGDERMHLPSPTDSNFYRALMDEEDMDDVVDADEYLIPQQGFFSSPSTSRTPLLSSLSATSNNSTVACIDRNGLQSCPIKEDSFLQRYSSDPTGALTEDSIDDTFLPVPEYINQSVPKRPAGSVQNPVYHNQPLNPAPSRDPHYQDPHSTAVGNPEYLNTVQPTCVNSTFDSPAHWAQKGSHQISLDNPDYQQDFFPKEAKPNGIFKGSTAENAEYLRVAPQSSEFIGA

As for `COc1cc2ncnc(-c3cn(C)nc3-c3ccccc3)c2cc1[C@H]1CN(C)CCO1` (single isomer, unassigned) [Example 129, (S)-2-(7-methoxy-4-(1-methyl-3-phenyl-1H-pyrazol-4-yl)quinazolin-6-yl)-4-methylmorpholine or (R)-2-(7-methoxy-4-(1-methyl-3-phenyl-1H-pyrazol-4-yl)quinazolin-6-yl)-4-methylmorpholine], the IC50 at EGFR L858R turned out to be 4.3 nM; at EGFR (d746-750), 1.1 nM; in test [1], 2.7 nM.

For `COc1cc2ncnc(-c3c[nH]nc3-c3ccccc3)c2cc1[C@@H]1CCCCO1` (single isomer, unassigned) [Example 132, (S)-7-methoxy-4-(3-phenyl-1H-pyrazol-4-yl)-6-(tetrahydro-2H-pyran-2-yl)quinazoline or (R)-7-methoxy-4-(3-phenyl-1H-pyrazol-4-yl)-6-(tetrahydro-2H-pyran-2-yl)quinazoline], the results for the IC50 (at EGFR L858R; at EGFR (d746-750); in test [1]) were 1.4 nM, 0.9 nM and 0.6 nM, respectively.

For the compound `COc1cc2ncnc(-c3c[nH]nc3-c3ccccc3)c2cc1[C@H]1CCCCO1` (single isomer, unassigned) [Example 133, (R)-7-methoxy-4-(3-phenyl-1H-pyrazol-4-yl)-6-(tetrahydro-2H-pyran-2-yl)quinazoline or (S)-7-methoxy-4-(3-phenyl-1H-pyrazol-4-yl)-6-(tetrahydro-2H-pyran-2-yl)quinazoline], the IC50 at EGFR L858R worked out at 1.1 nM; at EGFR (d746-750) it was 0.5 nM; in test [1] it was 2.4 nM.

For `COc1cc2ncnc(-c3cn(C)nc3-c3ccccc3)c2cc1N1CC[C@H](F)[C@@H](O)C1` (single isomer, unassigned) [Example 172, (3S,4S)-4-fluoro-1-(7-methoxy-4-(1-methyl-3-phenyl-1H-pyrazol-4-yl)quinazolin-6-yl) piperidin-3-ol or (3R,4R)-4-fluoro-1-(7-methoxy-4-(1-methyl-3-phenyl-1H-pyrazol-4-yl)quinazolin-6-yl) piperidin-3-ol], the figures for the half-inhibitory concentration (IC50) (at EGFR L858R; at EGFR (d746-750); in test [1]) were 6.7 nM, 2.2 nM and 11.7 nM, respectively.

Turning to `COc1cc2ncnc(-c3cn(C)nc3-c3ccccc3)c2cc1N1CC[C@@H](F)[C@H](O)C1` (single isomer, unassigned) [Example 173, (3R,4R)-4-fluoro-1-(7-methoxy-4-(1-methyl-3-phenyl-1H-pyrazol-4-yl)quinazolin-6-yl) piperidin-3-ol or (3S,4S)-4-fluoro-1-(7-methoxy-4-(1-methyl-3-phenyl-1H-pyrazol-4-yl)quinazolin-6-yl) piperidin-3-ol], the IC50 on EGFR L858R turned out to be 9 nM; on EGFR (d746-750) it was 3.6 nM; in test [1], 13.8 nM.

For `COc1cc2ncnc(-c3cn(C)nc3-c3ccccc3)c2cc1NC(=O)N1CCN(C)[C@@H](C)[C@H]1C` (single isomer, unassigned) [Example 180, (2R,3S)—N-(7-methoxy-4-(1-methyl-3-phenyl-1H-pyrazol-4-yl)quinazolin-6-yl)-2,3,4-trimethylpiperazine-1-carboxamide or (2S,3R)—N-(7-methoxy-4-(1-methyl-3-phenyl-1H-pyrazol-4-yl)quinazolin-6-yl)-2,3,4-trimethylpiperazine-1-carboxamide], the IC50 at EGFR L858R was found to be 3.8 nM; on EGFR (d746-750), 2.2 nM; in test [1] it was 4 nM.

Turning to `COc1cc2ncnc(-c3cn(C)nc3-c3ccccc3)c2cc1NC(=O)[C@H](C)N(C)C` (single isomer, unassigned) [Example 236, (S)-2-(dimethylamino)-N-(7-methoxy-4-(1-methyl-3-phenyl-1H-pyrazol-4-yl)quinazolin-6-yl) propenamide or (R)-2-(dimethylamino)-N-(7-methoxy-4-(1-methyl-3-phenyl-1H-pyrazol-4-yl)quinazolin-6-yl) propenamide], the IC50 at EGFR L858R came to 3.8 nM; at EGFR (d746-750) it was 1.4 nM; in test [1] it was 3.9 nM.

As to `COc1cc2ncnc(-c3cn(C)nc3-c3ccccc3)c2cc1NC(=O)[C@H](C)N(C)C` (single isomer, unassigned) [Example 237, (R)-2-(dimethylamino)-N-(7-methoxy-4-(1-methyl-3-phenyl-1H-pyrazol-4-yl)quinazolin-6-yl) propenamide or (S)-2-(dimethylamino)-N-(7-methoxy-4-(1-methyl-3-phenyl-1H-pyrazol-4-yl)quinazolin-6-yl) propenamide], the IC50 came to 5.4 nM on EGFR L858R, 2 nM on EGFR (d746-750) and 6.6 nM in test [1].

With `COc1cc2ncnc(-c3cn(C)nc3-c3ccccc3)c2cc1NC(=O)[C@@H](C)CN(C)C` (single isomer, unassigned) [Example 238, (S)-3-(dimethylamino)-N-(7-methoxy-4-(1-methyl-3-phenyl-1H-pyrazol-4-yl)quinazolin-6-yl)-2-methylpropanamide or (R)-3-(dimethylamino)-N-(7-methoxy-4-(1-methyl-3-phenyl-1H-pyrazol-4-yl)quinazolin-6-yl)-2-methylpropanamide], the values for the IC50 (on EGFR L858R; at EGFR (d746-750); in test [1]) were 12 nM, 8.2 nM and 26 nM, respectively.

Take `COc1cc2ncnc(-c3cn(C)nc3-c3ccccc3)c2cc1NC(=O)[C@H](C)CN(C)C` (single isomer, unassigned) [Example 239, (R)-3-(dimethylamino)-N-(7-methoxy-4-(1-methyl-3-phenyl-1H-pyrazol-4-yl)quinazolin-6-yl)-2-methylpropanamide or (S)-3-(dimethylamino)-N-(7-methoxy-4-(1-methyl-3-phenyl-1H-pyrazol-4-yl)quinazolin-6-yl)-2-methylpropanamide]: the IC50 stood at 4.1 nM at EGFR L858R, 1.7 nM on EGFR (d746-750) and 4 nM in test [1].

Regarding `COc1cc2ncnc(-c3cn(C)nc3-c3ccccc3F)c2cc1NC(=O)[C@@]12COC[C@@H]1C2` (single isomer, unassigned) [Example 240, (1R,5R)—N-(4-(3-(2-fluorophenyl)-1-methyl-1H-pyrazol-4-yl)-7-methoxyquinazolin-6-yl)-3-oxabicyclo[3.1.0]hexane-1-carboxamide or (1S,5S)—N-(4-(3-(2-fluorophenyl)-1-methyl-1H-pyrazol-4-yl)-7-methoxyquinazolin-6-yl)-3-oxabicyclo[3.1.0]hexane-1-carboxamide], the IC50 on EGFR L858R is 1.8 nM; on EGFR (d746-750), 0.8 nM; in test [1], 1.4 nM.

As for `COc1cc2ncnc(-c3cn(C)nc3-c3ccccc3F)c2cc1NC(=O)[C@]12COC[C@H]1C2` (single isomer, unassigned) [Example 241, (1S,5S)—N-(4-(3-(2-fluorophenyl)-1-methyl-1H-pyrazol-4-yl)-7-methoxyquinazolin-6-yl)-3-oxabicyclo[3.1.0]hexane-1-carboxamide or (1R,5R)—N-(4-(3-(2-fluorophenyl)-1-methyl-1H-pyrazol-4-yl)-7-methoxyquinazolin-6-yl)-3-oxabicyclo[3.1.0]hexane-1-carboxamide], the IC50 at EGFR L858R was 3 nM; at EGFR (d746-750), 1.5 nM; in test [1], 2 nM.

For orientation: IC50 means the concentration at which inhibition is half-maximal.
